Data published in the NIST ThermoML archive (doi:10.1016/j.jct.2014.01.012).
Numbers after ± are expanded uncertainties.

Experiment: refractive index (Na D-line) (dimensionless); xn = mol fraction of the nth substance listed
Settings: 101 kPa, Liquid

## CCCCCCCC[n+]1ccn(C)c1.F[P-](F)(F)(F)(F)F [1-octyl-3-methylimidazolium hexafluorophosphate] + CCCCOC(C)=O
293.15 K, x1 = 0.1078
  refractive index: 1.40113 ± 0.0016
293.15 K, x1 = 0.2016
  refractive index: 1.40658 ± 0.0016
293.15 K, x1 = 0.3056
  refractive index: 1.41215 ± 0.0016
293.15 K, x1 = 0.3855
  refractive index: 1.41536 ± 0.0016
293.15 K, x1 = 0.4815
  refractive index: 1.41829 ± 0.0016
293.15 K, x1 = 0.5918
  refractive index: 1.42036 ± 0.0016
293.15 K, x1 = 0.6857
  refractive index: 1.42188 ± 0.0017
293.15 K, x1 = 0.7784
  refractive index: 1.42339 ± 0.0017
293.15 K, x1 = 0.8946
  refractive index: 1.42502 ± 0.0017
293.15 K, x1 = 1
  refractive index: 1.42649 ± 0.0017
298.15 K, x1 = 0.1078
  refractive index: 1.39916 ± 0.0016
298.15 K, x1 = 0.2016
  refractive index: 1.40486 ± 0.0016
298.15 K, x1 = 0.3056
  refractive index: 1.41053 ± 0.0016
298.15 K, x1 = 0.3855
  refractive index: 1.41402 ± 0.0016
298.15 K, x1 = 0.4815
  refractive index: 1.41692 ± 0.0016
298.15 K, x1 = 0.5918
  refractive index: 1.41924 ± 0.0016
298.15 K, x1 = 0.6857
  refractive index: 1.42067 ± 0.0017
298.15 K, x1 = 0.7784
  refractive index: 1.42219 ± 0.0017
298.15 K, x1 = 0.8946
  refractive index: 1.42373 ± 0.0017
298.15 K, x1 = 1
  refractive index: 1.42512 ± 0.0017
303.15 K, x1 = 0.1078
  refractive index: 1.39682 ± 0.0016
303.15 K, x1 = 0.2016
  refractive index: 1.40307 ± 0.0016
303.15 K, x1 = 0.3056
  refractive index: 1.40886 ± 0.0016
303.15 K, x1 = 0.3855
  refractive index: 1.41241 ± 0.0016
303.15 K, x1 = 0.4815
  refractive index: 1.41546 ± 0.0016
303.15 K, x1 = 0.5918
  refractive index: 1.41801 ± 0.0016
303.15 K, x1 = 0.6857
  refractive index: 1.41931 ± 0.0017
303.15 K, x1 = 0.7784
  refractive index: 1.42073 ± 0.0017
303.15 K, x1 = 0.8946
  refractive index: 1.42217 ± 0.0017
303.15 K, x1 = 1
  refractive index: 1.42376 ± 0.0017
308.15 K, x1 = 0.1078
  refractive index: 1.39502 ± 0.0016
308.15 K, x1 = 0.2016
  refractive index: 1.40132 ± 0.0016
308.15 K, x1 = 0.3056
  refractive index: 1.40721 ± 0.0016
308.15 K, x1 = 0.3855
  refractive index: 1.41099 ± 0.0016
308.15 K, x1 = 0.4815
  refractive index: 1.41402 ± 0.0016
308.15 K, x1 = 0.5918
  refractive index: 1.41668 ± 0.0016
308.15 K, x1 = 0.6857
  refractive index: 1.41801 ± 0.0017
308.15 K, x1 = 0.7784
  refractive index: 1.41955 ± 0.0017
308.15 K, x1 = 0.8946
  refractive index: 1.42089 ± 0.0017
308.15 K, x1 = 1
  refractive index: 1.4224 ± 0.0017
313.15 K, x1 = 0.1078
  refractive index: 1.39308 ± 0.0016
313.15 K, x1 = 0.2016
  refractive index: 1.39963 ± 0.0016
313.15 K, x1 = 0.3056
  refractive index: 1.40556 ± 0.0016
313.15 K, x1 = 0.3855
  refractive index: 1.40944 ± 0.0016
313.15 K, x1 = 0.4815
  refractive index: 1.41256 ± 0.0016
313.15 K, x1 = 0.5918
  refractive index: 1.41529 ± 0.0016
313.15 K, x1 = 0.6857
  refractive index: 1.41687 ± 0.0017
313.15 K, x1 = 0.7784
  refractive index: 1.41835 ± 0.0017
313.15 K, x1 = 0.8946
  refractive index: 1.41966 ± 0.0017
313.15 K, x1 = 1
  refractive index: 1.42103 ± 0.0017
318.15 K, x1 = 0.1078
  refractive index: 1.39114 ± 0.0016
318.15 K, x1 = 0.2016
  refractive index: 1.39793 ± 0.0016
318.15 K, x1 = 0.3056
  refractive index: 1.40399 ± 0.0016
318.15 K, x1 = 0.3855
  refractive index: 1.40796 ± 0.0016
318.15 K, x1 = 0.4815
  refractive index: 1.41132 ± 0.0016
318.15 K, x1 = 0.5918
  refractive index: 1.41404 ± 0.0016
318.15 K, x1 = 0.6857
  refractive index: 1.41575 ± 0.0017
318.15 K, x1 = 0.7784
  refractive index: 1.41726 ± 0.0017
318.15 K, x1 = 0.8946
  refractive index: 1.41848 ± 0.0017
318.15 K, x1 = 1
  refractive index: 1.41967 ± 0.0017
323.15 K, x1 = 0.1078
  refractive index: 1.38914 ± 0.0016
323.15 K, x1 = 0.2016
  refractive index: 1.39622 ± 0.0016
323.15 K, x1 = 0.3056
  refractive index: 1.40245 ± 0.0016
323.15 K, x1 = 0.3855
  refractive index: 1.40652 ± 0.0016
323.15 K, x1 = 0.4815
  refractive index: 1.41001 ± 0.0016
323.15 K, x1 = 0.5918
  refractive index: 1.41272 ± 0.0016
323.15 K, x1 = 0.6857
  refractive index: 1.41456 ± 0.0017
323.15 K, x1 = 0.7784
  refractive index: 1.41606 ± 0.0017
323.15 K, x1 = 0.8946
  refractive index: 1.41731 ± 0.0017
323.15 K, x1 = 1
  refractive index: 1.41831 ± 0.0017

## CCCCCCCC[n+]1ccn(C)c1.F[P-](F)(F)(F)(F)F [1-octyl-3-methylimidazolium hexafluorophosphate] + CCOC(C)=O
293.15 K, x1 = 0.1056
  refractive index: 1.38873 ± 0.0016
293.15 K, x1 = 0.2064
  refractive index: 1.40004 ± 0.0016
293.15 K, x1 = 0.308
  refractive index: 1.40816 ± 0.0016
293.15 K, x1 = 0.4094
  refractive index: 1.41301 ± 0.0016
293.15 K, x1 = 0.4991
  refractive index: 1.41629 ± 0.0016
293.15 K, x1 = 0.5916
  refractive index: 1.41842 ± 0.0016
293.15 K, x1 = 0.694
  refractive index: 1.4208 ± 0.0017
293.15 K, x1 = 0.8121
  refractive index: 1.42285 ± 0.0017
293.15 K, x1 = 0.8895
  refractive index: 1.42447 ± 0.0017
293.15 K, x1 = 1
  refractive index: 1.42649 ± 0.0017
298.15 K, x1 = 0.1056
  refractive index: 1.38754 ± 0.0016
298.15 K, x1 = 0.2064
  refractive index: 1.39899 ± 0.0016
298.15 K, x1 = 0.308
  refractive index: 1.40705 ± 0.0016
298.15 K, x1 = 0.4094
  refractive index: 1.41196 ± 0.0016
298.15 K, x1 = 0.4991
  refractive index: 1.41523 ± 0.0016
298.15 K, x1 = 0.5916
  refractive index: 1.41771 ± 0.0016
298.15 K, x1 = 0.694
  refractive index: 1.41971 ± 0.0017
298.15 K, x1 = 0.8121
  refractive index: 1.42189 ± 0.0017
298.15 K, x1 = 0.8895
  refractive index: 1.42354 ± 0.0017
298.15 K, x1 = 1
  refractive index: 1.42512 ± 0.0017
303.15 K, x1 = 0.1056
  refractive index: 1.38545 ± 0.0016
303.15 K, x1 = 0.2064
  refractive index: 1.39759 ± 0.0016
303.15 K, x1 = 0.308
  refractive index: 1.40552 ± 0.0016
303.15 K, x1 = 0.4094
  refractive index: 1.41088 ± 0.0016
303.15 K, x1 = 0.4991
  refractive index: 1.41385 ± 0.0016
303.15 K, x1 = 0.5916
  refractive index: 1.41655 ± 0.0016
303.15 K, x1 = 0.694
  refractive index: 1.41878 ± 0.0017
303.15 K, x1 = 0.8121
  refractive index: 1.42063 ± 0.0017
303.15 K, x1 = 0.8895
  refractive index: 1.42188 ± 0.0017
303.15 K, x1 = 1
  refractive index: 1.42376 ± 0.0017
308.15 K, x1 = 0.1056
  refractive index: 1.38383 ± 0.0016
308.15 K, x1 = 0.2064
  refractive index: 1.39634 ± 0.0016
308.15 K, x1 = 0.308
  refractive index: 1.40439 ± 0.0016
308.15 K, x1 = 0.4094
  refractive index: 1.40952 ± 0.0016
308.15 K, x1 = 0.4991
  refractive index: 1.41311 ± 0.0016
308.15 K, x1 = 0.5916
  refractive index: 1.41557 ± 0.0016
308.15 K, x1 = 0.694
  refractive index: 1.41792 ± 0.0017
308.15 K, x1 = 0.8121
  refractive index: 1.42016 ± 0.0017
308.15 K, x1 = 0.8895
  refractive index: 1.42072 ± 0.0017
308.15 K, x1 = 1
  refractive index: 1.4224 ± 0.0017
313.15 K, x1 = 0.1056
  refractive index: 1.38267 ± 0.0016
313.15 K, x1 = 0.2064
  refractive index: 1.39498 ± 0.0016
313.15 K, x1 = 0.308
  refractive index: 1.40318 ± 0.0016
313.15 K, x1 = 0.4094
  refractive index: 1.40842 ± 0.0016
313.15 K, x1 = 0.4991
  refractive index: 1.41186 ± 0.0016
313.15 K, x1 = 0.5916
  refractive index: 1.41447 ± 0.0016
313.15 K, x1 = 0.694
  refractive index: 1.41699 ± 0.0017
313.15 K, x1 = 0.8121
  refractive index: 1.41906 ± 0.0017
313.15 K, x1 = 0.8895
  refractive index: 1.41956 ± 0.0017
313.15 K, x1 = 1
  refractive index: 1.42103 ± 0.0017
318.15 K, x1 = 0.1056
  refractive index: 1.38145 ± 0.0016
318.15 K, x1 = 0.2064
  refractive index: 1.39381 ± 0.0016
318.15 K, x1 = 0.308
  refractive index: 1.40208 ± 0.0016
318.15 K, x1 = 0.4094
  refractive index: 1.40767 ± 0.0016
318.15 K, x1 = 0.4991
  refractive index: 1.41108 ± 0.0016
318.15 K, x1 = 0.5916
  refractive index: 1.41348 ± 0.0016
318.15 K, x1 = 0.694
  refractive index: 1.41612 ± 0.0017
318.15 K, x1 = 0.8121
  refractive index: 1.41805 ± 0.0017
318.15 K, x1 = 0.8895
  refractive index: 1.41852 ± 0.0017
318.15 K, x1 = 1
  refractive index: 1.41967 ± 0.0017
323.15 K, x1 = 0.1056
  refractive index: 1.38027 ± 0.0016
323.15 K, x1 = 0.2064
  refractive index: 1.39276 ± 0.0016
323.15 K, x1 = 0.308
  refractive index: 1.40106 ± 0.0016
323.15 K, x1 = 0.4094
  refractive index: 1.40658 ± 0.0016
323.15 K, x1 = 0.4991
  refractive index: 1.41002 ± 0.0016
323.15 K, x1 = 0.5916
  refractive index: 1.41266 ± 0.0016
323.15 K, x1 = 0.694
  refractive index: 1.41504 ± 0.0017
323.15 K, x1 = 0.8121
  refractive index: 1.41746 ± 0.0017
323.15 K, x1 = 0.8895
  refractive index: 1.41744 ± 0.0017
323.15 K, x1 = 1
  refractive index: 1.41831 ± 0.0017
